Reference: patent US9511010B2, “Compounds useful in the treatment and/or care of the skin, hair and/or mucous membranes and their cosmetic or pharmaceutical compositions” (Lubrizol Advanced Materials, Inc., priority 2012, dated 2016)

Legend:
[1] = system: HEKa primary keratinocytes; assay: Host cell reactivation (HCR) assay, activation of DNA repair in primary keratinocytes; assay type: cell-based, human; conditions: 24 hours, basal = 100
Experimental: The host cell reactivation (HCR) assay was used in HEKa primary keratinocytes to evaluate the capacity of the peptides of the invention to repair the damage to the DNA in a biologically functional way. 40,000 cells per well were seeded and they were co-transfected with a control plasmid which constitutively expresses the Firefly luciferase gene (pGL3), previously damaged by UVC, and with an undamaged plasmid which constitutively expresses the Renilla luciferase gene (vector pRluc-N1(h)).
Subsequently the cells were incubated with the compounds of the invention at 0.025 mg/mL and 0.5 mg/mL in EpiLife medium for 24 hours, after which the luminescence due to the activity of the Firefly and Renilla luciferases was measured using the Dual-Go Luciferase Assay System kit following the manufacturer's instructions. The carrier in which the compounds of the invention (EpiLife medium) were dissolved was used as a negative control. The activation percentage of the DNA repair for each sample was calculated standardizing the luminescence values of the Firefly luciferase with regard to the Renilla luciferase, subsequently standardizing with regard to the values of the negative control.
(§1) Each experiment was carried out three times in 3 independent experiments.

FOXO response elements = assay: Stimulation of the expression of proteins regulated by FOXO: luciferase reporter under FOXO response elements; assay type: cell-based, human; conditions: 0.5 mg/mL, 24 hours; carrier (0.05% DMSO) = 100
Experimental: The activation capacity of the FOXO response elements was evaluated in a human epithelial cell line stably transfected with the luciferase gene under the control of a regulatory sequence which contains different FOXO response elements which are in the promoters of the FOXO target genes. The activation capacity of the FOXO response elements indicates the expression of proteins regulated by FOXO. 30,000 cells per well were seeded in a total volume of 100 μL of RPMI 1640 culture medium. After 24 hours the cells with RPMI 1640 culture medium were washed and were incubated with the compounds of the invention at 0.5 mg/mL for 24 hours in a total volume of 100 μL per well. The carrier in which the compounds of the invention were dissolved was used (0.05% DMSO) as a negative control.
The measurement of the activity of the promoter was carried out using the Steady-Go Luciferase Assay System kit following the manufacturer's instructions. The luminescence values (RLU/sec) caused by the reaction between luciferase and the substrate were quantified with a luminometer and normalized by the cell number (absorbance at 630 nm), and the activity of the promoter was determined, which was standardized with regard to the negative control values.
as §1

[2] = system: Adult human epidermal keratinocytes (HEKa); assay: Profile of the gene expression of human epidermal keratinocytes (microarray); assay type: cell-based; conditions: 0.1 mg/ml, 24 hours, vs untreated cells
Experimental: Adult human epidermal keratinocytes (HEKa) were seeded (15×10^4 cells/vial cells/vial T25 cm^2), and were incubated in complete Epilife medium for 7 days at 37° C. in an atmosphere with 5% CO2. After the incubation, the cells were treated for 24 hours at 37° C. in an atmosphere with 5% CO2 with 0.1 mg/ml of the compound Ac-L-Tyr-L-Glu-L-Lys-L-Leu-L-Gln-L-Val-NH2 (Ac-SEQ ID NO:22-NH2) in complete Epilife medium or in complete Epilife medium as a negative control. The incubations and the treatments were carried out in duplicate for each condition.
24 hours after the treatments, the cells were homogenized and the RNA was extracted and purified from each replica and each condition by means of the RNeasyPlus Mini kit by Qiagen. Briefly, RNases were inactivated from cells lysates and samples were passed through special RNA binding columns to eliminate contaminants and impurities and after several microcentrifugation washes, the purified RNA was eluted with 50 μl of ultrapure water. The purity, integrity and concentration of the RNA obtained was evaluated by means of spectrophotometry (Nanodrop) and with a bioanalyzer (Agilent Bioanalyzer).
The marking of the purified RNA was carried out as was the hybridization of the samples in a human gene expression microarray (ASurePrint G3, Agilent). The normalized values obtained with the treatment were compared with the normalized values obtained with the negative control to obtain genes with differential expression. Next, a parametric analysis of the data was carried out by means of the Bioconductor software. Then, the values obtained were evaluated by means of GSEA (Gene Set Analysis Enrichment) to group the genes with differential expression in terms of Gene Ontology. Biological Routes and most significant pathways with a False Discovery Rate (FDR) lower than 25% were selected.

Ac-YEKLQV-NH2 [Ac-SEQ ID NO: 22-NH2, Ac-L-Tyr-L-Glu-L-Lys-L-Leu-L-Gln-L-Val-NH2]
Activation Average (%) of DNA repair, HCR assay ([1]; 0.025 mg/mL): 203% | Activation Average (%) of DNA repair, HCR assay ([1]; 0.5 mg/mL): 272% | Stimulation Average (%) of the activation of the FOXO response factors (FOXO response elements): 186% | % Expression induction, ACD ([2]; gene ACD, LONGEVITY, TELOMERE MAINTENANCE AND PROTECTION): 10.76% | % Expression induction, AIF1 ([2]; gene AIF1, INFLAMMATION, ANTI-INFLAMMATORY RESPONSE): 19.02% | % Expression induction, ANXA1 ([2]; gene ANXA1, INFLAMMATION, ANTI-INFLAMMATORY RESPONSE): 8.22% | % Expression induction, ANXA4 ([2]; gene ANXA4, INFLAMMATION, ANTI-INFLAMMATORY RESPONSE): 17.69% | % Expression induction, ANXA5 ([2]; gene ANXA5, INFLAMMATION, ANTI-INFLAMMATORY RESPONSE): 22.32% | % Expression induction, ATM ([2]; gene ATM, CELL CYCLE): 48.53% | % Expression induction, ATRX ([2]; gene ATRX, HELICASE ACTIVITY and ATPase ACTIVITY): 48.65% | % Expression induction, BAG4 ([2]; gene BAG4, APOPTOSIS INHIBITION): 32.42% | % Expression induction, BAX ([2]; gene BAX, APOPTOSIS INHIBITION): −60.73% | % Expression induction, BCL2 ([2]; gene BCL2, APOPTOSIS INHIBITION): 59.91% | % Expression induction, BCL2L2 ([2]; gene BCL2L2, APOPTOSIS INHIBITION): 32.49% | % Expression induction, BIRC3 ([2]; gene BIRC3, APOPTOSIS INHIBITION): 16.84% | % Expression induction, BIRC6 ([2]; gene BIRC6, APOPTOSIS INHIBITION): 73.14% | % Expression induction, BNIP2 ([2]; gene BNIP2, APOPTOSIS INHIBITION): 30.68% | % Expression induction, BNIP3L ([2]; gene BNIP3L, APOPTOSIS INHIBITION): 31.39% | % Expression induction, CASP3 ([2]; gene CASP3, APOPTOSIS ACTIVATION): 31.18% | % Expression induction, CDK7 ([2]; gene CDK7, DNA repair, Protein DNA Complex Assembly): 14.31% | % Expression induction, CHD1 ([2]; gene CHD1, HELICASE ACTIVITY and ATPase ACTIVITY): 40.46% | % Expression induction, CHD2 ([2]; gene CHD2, HELICASE ACTIVITY and ATPase ACTIVITY): 42.59% | % Expression induction, DDX1 ([2]; gene DDX1, HELICASE ACTIVITY and ATPase ACTIVITY): 26.92% | % Expression induction, DDX10 ([2]; gene DDX10, HELICASE ACTIVITY and ATPase ACTIVITY): 27.49% | % Expression induction, DDX25 ([2]; gene DDX25, HELICASE ACTIVITY and ATPase ACTIVITY): 16.24% | % Expression induction, ERCC6 ([2]; gene ERCC6, HELICASE ACTIVITY and ATPase ACTIVITY): 74.50% | % Expression induction, ERCC8 ([2]; gene ERCC8, DNA repair, Protein DNA Complex Assembly): 8.90% | % Expression induction, FAS ([2]; gene FAS, APOPTOSIS INHIBITION): −15.36% | % Expression induction, IL6 ([2]; gene IL6, INFLAMMATION, ANTI-INFLAMMATORY RESPONSE): −26.30% | % Expression induction, MAPK8 ([2]; gene MAPK8, APOPTOSIS INHIBITION): −33.72% | % Expression induction, MCL1 ([2]; gene MCL1, APOPTOSIS ACTIVATION): −17.76% | % Expression induction, MED4 ([2]; gene MED4, DNA repair, Protein DNA Complex Assembly): 28.80% | % Expression induction, MED13 ([2]; gene MED13, DNA repair, Protein DNA Complex Assembly): 56.75% | % Expression induction, MED14 ([2]; gene MED14, DNA repair, Protein DNA Complex Assembly): 32.54% | % Expression induction, MED17 ([2]; gene MED17, DNA repair, Protein DNA Complex Assembly): 46.25% | % Expression induction, MNAT1 ([2]; gene MNAT1, DNA repair, Protein DNA Complex Assembly): 17.84% | % Expression induction, MSH4 ([2]; gene MSH4, CELL CYCLE): 33.28% | % Expression induction, MYC ([2]; gene MYC, APOPTOSIS ACTIVATION): 41.70% | % Expression induction, NLRP3 ([2]; gene NLRP3, INFLAMMATION, ANTI-INFLAMMATORY RESPONSE): 36.49% | % Expression induction, NLRP12 ([2]; gene NLRP12, INFLAMMATION, ANTI-INFLAMMATORY RESPONSE): 39.96% | % Expression induction, PAPD7 ([2]; gene PAPD7, DNA POLYMERASE ACTIVITY): 65.27% | % Expression induction, POLA1 ([2]; gene POLA1, DNA POLYMERASE ACTIVITY): 29.28% | % Expression induction, POLD4 ([2]; gene POLD4, DNA POLYMERASE ACTIVITY): 31.74% | % Expression induction, POLH ([2]; gene POLH, DNA POLYMERASE ACTIVITY): 28.96% | % Expression induction, PTEN ([2]; gene PTEN, other genes involved in LONGEVITY): 26.04% | % Expression induction, RAD17 ([2]; gene RAD17, CELL CYCLE): 0.21% | % Expression induction, RAD21 ([2]; gene RAD21, CELL CYCLE): 18.22% | % Expression induction, RAD50 ([2]; gene RAD50, CELL CYCLE): 37.66% | % Expression induction, RAD54B ([2]; gene RAD54B, CELL CYCLE): 26.20% | % Expression induction, SETX ([2]; gene SETX, HELICASE ACTIVITY and ATPase ACTIVITY): 65.33% | % Expression induction, SH3GLB1 ([2]; gene SH3GLB1, APOPTOSIS ACTIVATION): 52.57% | % Expression induction, SMARCA1 ([2]; gene SMARCA1, HELICASE ACTIVITY and ATPase ACTIVITY): 29.62% | % Expression induction, SOCS2 ([2]; gene SOCS2, INFLAMMATION, ANTI-INFLAMMATORY RESPONSE): 56.13% | % Expression induction, TAF1 ([2]; gene TAF1, DNA repair, Protein DNA Complex Assembly): 65.00% | % Expression induction, TAF2 ([2]; gene TAF2, DNA repair, Protein DNA Complex Assembly): 25.12% | % Expression induction, TAF5 ([2]; gene TAF5, DNA repair, Protein DNA Complex Assembly): 8.18% | % Expression induction, TAX1BP1 ([2]; gene TAX1BP1, APOPTOSIS INHIBITION): 19.23% | % Expression induction, TEP1 ([2]; gene TEP1, LONGEVITY, TELOMERE MAINTENANCE AND PROTECTION): 38.49% | % Expression induction, TERF1 ([2]; gene TERF1, LONGEVITY, TELOMERE MAINTENANCE AND PROTECTION): 7.38% | % Expression induction, TERF2IP ([2]; gene TERF2IP, LONGEVITY, TELOMERE MAINTENANCE AND PROTECTION): 21.63% | % Expression induction, TINF2 ([2]; gene TINF2, LONGEVITY, TELOMERE MAINTENANCE AND PROTECTION): 13.37% | % Expression induction, TP53BP2 ([2]; gene TP53BP2, APOPTOSIS ACTIVATION): 22.34% | % Expression induction, WRN ([2]; gene WRN, HELICASE ACTIVITY and ATPase ACTIVITY): 35.25% | % Expression induction, XIAP ([2]; gene XIAP, APOPTOSIS INHIBITION): 51.98% | % Expression induction, XRCC2 ([2]; gene XRCC2, CELL CYCLE): 24.95%
